Reference: patent publication US20100279941A1, “CD36 MODULATION AND USES THEREOF” (priority 2009, published 2010)

What was measured:
[1] = test system: CD36^+/+ and CD36^−/− mice; experiment: Area at risk and infarct size after 30-min LCAL and 48 hours reperfusion (Evans blue/TTC); assay type: in vivo
Excerpt: Animals. CD36^−/− mice were generated by targeted homologous recombination and backcrossed six times to C57BI/6. Wild-type control littermates (CD36^+/+) were bred from the same cross and were therefore of identical genetic background [Febbraio et al., 2000]. Male mice, aged 23 (±1) weeks, were used for experiments. They were fed standard chow (#5075, Charles Rivers, Saint-Constant, Québec, Canada) and water ad libitum, and housed singly during treatment periods (2 or 10 weeks). Daily pharmacological treatments with 300 μg/kg of EP 80317 or CP1A(IV) or vehicle (0.9% NaCl) were done by subcutaneous (s.c.) injections.
C57BU6 mice were bred in house. Male mice, aged 23 (±1) weeks, were used for experiments. They were fed standard chow (#5075, Charles Rivers, Saint-Constant, Québec, Canada) and water ad libitum, and housed singly during treatment periods (2 weeks). Daily pharmacological treatments with 300 μg/kg (289 nmol/kg) of EP 80317 or 289 nmol/kg of CP-3(IV), 289 nmol/kg of CP-AP-4 or vehicle (0.9% NaCl) were done by subcutaneous (s.c.) injections.
(§1) Experimental model of IHD: Transient left coronary artery ligation in vivo. Mice were subjected to a transient LCAL surgery as described before, with minor modifications [Tarnayski et al., 2004]. Mice were injected i.p. with buprenorphine (0.05 mg/kg) and placed in an induction chamber with inhalation anesthesia comprised of 3% isoflurane mixed with 100% oxygen. Mice were intubated with a blunt ended 20-gauge catheter into the trachea via the mouth and mechanically ventilated at a tidal volume of 7 ml/kg at 130 respirations/min with a MiniVent™ mouse ventilator (model 845, Harvard Apparatus, Saint-Laurent, QC, Canada). Anesthesia was maintained with 1.5-2% isoflurane and the animals were kept warm using electrical heating pads during the surgical procedure. The chest was opened by a horizontal incision through the skin and muscle layers at the third intercostal space exposing the left side of the heart. […] Visual blanching distal to the coronary occlusion confirmed myocardial ischaemia. Lidocaine (6 mg/kg) was administered i.p. just following occlusion and prior to reperfusion. After 30 minutes, the PE10 tubing was removed allowing reperfusion. The lungs were reinflated and the chest wound closed layer by layer before extubation. At 6 hours following reperfusion, mice were anesthetized (isoflurane), a blood sample withdrawn, and the heart arrested in diastole by an intravenous injection of 1 M KCl (0.5 mL). Hearts were immediately frozen at −80° C. unless otherwise stated.
Evaluation of area at risk and infarct size. Two days after reperfusion, the left anterior descending (LAD) coronary artery was re-occluded at the original site and the abdominal aorta was injected retrogradly with 5% Evans blue dye to delineate the AAR by the absence of dark blue staining. The left ventricle, including the interventricular septum, was dissected and cut into transverse 1-mm slices from the apex to the base, using an acrylic matrix (Alto Inc., Hatfield, Pa., USA). The slices were incubated in 1% triphenyltetrazolium chloride solution at 37° C. for 15 min and placed in 10% neutral buffered formalin for 12 hours. Each slice was weighed and photographed on both sides with a digital camera (Nikon, Coolpix™ 4500, Mississauga, Ontario, Canada). The total LV area, AAR and IA were determined for each side of a slice by planimetric analysis using Adobe CS3 Photoshop™ software (Ottawa, ON, Canada), and averaged. The infarct weight was determined as follows: [(A1×WT1)+(A2×WT2)+(A3×WT3)+(A4×WT4) . . . ] where A and WT are the infarct area and weight of the section, respectively. The AAR weight was calculated in a similar manner, but by subtracting the blue (viable) stained zone from the weight. The results are expressed in terms of % IA/AAR, IA/LV and AAR/LV.

[2] = test system: CD36^+/+ and CD36^−/− mice; experiment: Ventricular and ejection volumes by ECG-gated μPET after transient myocardial ischemia; assay type: in vivo; settings: EP 80317-treated WT mice vs 0.9% NaCl
Protocol: as §1
Imaging experiments. Imaging experiments were performed with the avalanche photodiode-based small animal PET scanner (μPET) [Lecomte et al., 1996]. Before imaging, the heart position was localized with a Doppler probe (0.64 cm, 9 MHz; Parks Medical Electronics). […]
Imaging Data Analysis. For [^11C]-acetate images, dynamic series of 25 frames each were sorted out whereas 27 frames were used for ^18FDG and ^18FTHA imaging, and were reconstructed and analyzed using multicompartmental analysis [Menard et al., 2009] or the Patlak method for FTHA [Patlak and Blasberg, 1985]. […]

[3] = 2-week treatment 300 μg/kg/d, CD36^+/+ mice, 48 hours reperfusion, p<0.05 vs vehicle

Q: For “HAIC-2MeDTrp-DLys-Trp-DPhe-Lys-NH2 [EP 80317]”, which “reduction of IA/AAR ratio” value [1, 3] is on record?
A: The value was 31%.

Q: And the “reduction of IA/LV ratio” value [1, 3]?
A: The value was 34%.

Q: What about the area-at-risk ([1]; CD36^+/+ (C57BL/6) mice, 289 nmol/kg 2 weeks, 48 hours reperfusion, mean (±SE)) of the same substance?
A: The area-at-risk was 51 (±5) %.

Q: And the “reduction of IA/LV ratios” value ([1]; CD36^+/+ (C57BL/6) mice, 289 nmol/kg 2 weeks, 48 hours reperfusion, p<0.001 vs 0.9% NaCl)?
A: Its value is 48%.

Q: And the “effect on infarct size” value ([1]; CD36^−/− mice, 48 hours reperfusion, in words)?
A: The value was “did not modulate”.

Q: What about the “effect on AAR/LV” value ([1]; pretreatment 14 days, both CD36^+/+ and CD36^−/− mice, in words) of the same substance?
A: Its value is “did not modulate”.

Q: What about the “increase of end-systolic ventricular volume” value [2] of the same substance?
A: Its value is 26%.

Q: What about the “increase of end-diastolic ventricular volume” value ([2]; p<0.01) of the same substance?
A: The value was 31%.

Q: And the “increase of stroke volume” value ([2]; p<0.01)?
A: The value was 33%.
